Columns and labels:
[1] = tested on: weed plants such as Sinapis alba, Chrysanthemum segetum, Avena sativa, Stellaria media, Echinochloa crus-galli, Lolium multiflorum, Setaria viridis, Abutilon …; assay: Pre-emergence effect on weeds (greenhouse pot test, visual scoring); format: in vivo; details: applied pre-emergence at a rate of 0.3 kg or less of active substance per hectare; scored after 3 to 4 weeks in comparison to untreated controls
[2] = tested on: weed plants such as Sinapis alba, Echinochloa crus-galli, Lolium multiflorum, Chrysanthemum segetum, Setaria viridis, Abutilon theophrasti, Amaranthus …; assay: Post-emergence effect on weeds (greenhouse pot test, visual scoring); format: in vivo; details: applied post-emergence (three-leaf stage) at a rate of 0.3 kg or less of active substance per hectare; scored after about 3 to 4 weeks in comparison to untreated controls

SMILES: CC(C)Oc1nn(C(=O)NS(=O)(=O)c2c(I)cccc2OCC(F)F)c(=O)n1C [Compound 1.506]
- herbicidal action against weed plants (visual scoring of plant damage or emergence damage) [1]: very good herbidical action
- herbicidal action against weed plants (effect scored visually) [2]: very good herbicidal action

SMILES: COc1nn(C(=O)NS(=O)(=O)c2ccc(F)cc2I)c(=O)n1C [Compound 1.823]
- herbicidal action against weed plants (visual scoring of plant damage or emergence damage) [1]: very good herbidical action
- herbicidal action against weed plants (effect scored visually) [2]: very good herbicidal action

SMILES: CCCc1ccc(S(=O)(=O)NC(=O)n2nc(OC)n(C)c2=O)c(I)c1 [Compound 1.876]
- herbicidal action against weed plants (visual scoring of plant damage or emergence damage) [1]: very good herbidical action
- herbicidal action against weed plants (effect scored visually) [2]: very good herbicidal action

SMILES: CCCOc1nn(C(=O)NS(=O)(=O)c2cccc(Cl)c2I)c(=O)n1C [Compound 1.830]
- herbicidal action against weed plants (visual scoring of plant damage or emergence damage) [1]: very good herbidical action
- herbicidal action against weed plants (effect scored visually) [2]: very good herbicidal action

SMILES: COc1cccc(I)c1S(=O)(=O)NC(=O)n1nc(OC(C)C)n(C)c1=O [Compound 1.196]
- herbicidal action against weed plants (visual scoring of plant damage or emergence damage) [1]: very good herbidical action
- herbicidal action against weed plants (effect scored visually) [2]: very good herbicidal action

SMILES: CCCOc1nn(C(=O)NS(=O)(=O)c2c(I)cccc2SC)c(=O)n1C [Compound 1.581]
- herbicidal action against weed plants (visual scoring of plant damage or emergence damage) [1]: very good herbidical action
- herbicidal action against weed plants (effect scored visually) [2]: very good herbicidal action

SMILES: CCCOc1nn(C(=O)NS(=O)(=O)c2c(I)cccc2OC(C)C(F)(F)F)c(=O)n1C (stereo not shown) [Compound 1.526]
- herbicidal action against weed plants (visual scoring of plant damage or emergence damage) [1]: very good herbidical action
- herbicidal action against weed plants (effect scored visually) [2]: very good herbicidal action

SMILES: CCOc1nn(C(=O)NS(=O)(=O)c2ccccc2I)c(=O)n1C1CC1 [Compound 1.011]
- herbicidal action against weed plants (visual scoring of plant damage or emergence damage) [1]: very good herbidical action
- herbicidal action against weed plants (effect scored visually) [2]: very good herbicidal action

SMILES: COc1nn(C(=O)NS(=O)(=O)c2c(I)cccc2OCC(F)F)c(=O)n1C1CC1 [Compound 1.508]
- herbicidal action against weed plants (visual scoring of plant damage or emergence damage) [1]: very good herbidical action
- herbicidal action against weed plants (effect scored visually) [2]: very good herbicidal action

SMILES: CCOc1nn(C(=O)NS(=O)(=O)c2cc(C)c(C)cc2I)c(=O)n1C1CC1 [Compound 1.867]
- herbicidal action against weed plants (visual scoring of plant damage or emergence damage) [1]: very good herbidical action
- herbicidal action against weed plants (effect scored visually) [2]: very good herbicidal action

SMILES: CCOc1nn(C(=O)NS(=O)(=O)c2c(I)cccc2OCC(F)(F)C(F)(F)F)c(=O)n1C1CC1 [Compound 1.555]
- herbicidal action against weed plants (visual scoring of plant damage or emergence damage) [1]: very good herbidical action
- herbicidal action against weed plants (effect scored visually) [2]: very good herbicidal action

SMILES: CCCOc1nn(C(=O)NS(=O)(=O)c2c(I)cccc2OS(C)(=O)=O)c(=O)n1C [Compound 1.713]
- herbicidal action against weed plants (visual scoring of plant damage or emergence damage) [1]: very good herbidical action
- herbicidal action against weed plants (effect scored visually) [2]: very good herbicidal action

SMILES: COc1nn(C(=O)NS(=O)(=O)c2ccccc2I)c(=O)n1C [Compound 1.001]
- herbicidal action against weed plants (visual scoring of plant damage or emergence damage) [1]: very good herbidical action
- herbicidal action against weed plants (effect scored visually) [2]: very good herbicidal action

SMILES: CCOc1cccc(I)c1S(=O)(=O)NC(=O)n1nc(OC)n(C)c1=O [Compound 1.211]
- herbicidal action against weed plants (visual scoring of plant damage or emergence damage) [1]: very good herbidical action
- herbicidal action against weed plants (effect scored visually) [2]: very good herbicidal action

SMILES: CCCOc1nn(C(=O)NS(=O)(=O)c2c(I)cccc2OCC2CC2)c(=O)n1C [Compound 1.350]
- herbicidal action against weed plants (visual scoring of plant damage or emergence damage) [1]: very good herbidical action
- herbicidal action against weed plants (effect scored visually) [2]: very good herbicidal action

SMILES: CC(C)Oc1nn(C(=O)NS(=O)(=O)c2c(I)cccc2OCC(F)(F)C(F)(F)F)c(=O)n1C [Compound 1.550]
- herbicidal action against weed plants (visual scoring of plant damage or emergence damage) [1]: very good herbidical action
- herbicidal action against weed plants (effect scored visually) [2]: very good herbicidal action

SMILES: CCOc1nn(C(=O)NS(=O)(=O)c2c(I)cccc2OS(C)(=O)=O)c(=O)n1C [Compound 1.712]
- herbicidal action against weed plants (visual scoring of plant damage or emergence damage) [1]: very good herbidical action
- herbicidal action against weed plants (effect scored visually) [2]: very good herbicidal action

SMILES: CCCOc1nn(C(=O)NS(=O)(=O)c2cc(C(F)(F)F)ccc2I)c(=O)n1C [Compound 1.837]
- herbicidal action against weed plants (visual scoring of plant damage or emergence damage) [1]: very good herbidical action
- herbicidal action against weed plants (effect scored visually) [2]: very good herbicidal action

SMILES: CCCCc1ccc(S(=O)(=O)NC(=O)n2nc(OCCC)n(C)c2=O)c(I)c1 [Compound 1.884]
- herbicidal action against weed plants (visual scoring of plant damage or emergence damage) [1]: very good herbidical action
- herbicidal action against weed plants (effect scored visually) [2]: very good herbicidal action

SMILES: COc1nn(C(=O)NS(=O)(=O)c2cccc(Cl)c2I)c(=O)n1C1CC1 [Compound 1.832]
- herbicidal action against weed plants (visual scoring of plant damage or emergence damage) [1]: very good herbidical action
- herbicidal action against weed plants (effect scored visually) [2]: very good herbicidal action

SMILES: Cc1cccc(I)c1S(=O)(=O)NC(=O)n1nc(OC(C)C)n(C)c1=O [Compound 1.040]
- herbicidal action against weed plants (visual scoring of plant damage or emergence damage) [1]: very good herbidical action
- herbicidal action against weed plants (effect scored visually) [2]: very good herbicidal action

SMILES: COc1nn(C(=O)NS(=O)(=O)c2ccc(Cl)cc2I)c(=O)n1C [Compound 1.869]
- herbicidal action against weed plants (visual scoring of plant damage or emergence damage) [1]: very good herbidical action
- herbicidal action against weed plants (effect scored visually) [2]: very good herbicidal action

SMILES: CCOc1nn(C(=O)NS(=O)(=O)c2c(I)cccc2OCC(C)C)c(=O)n1C [Compound 1.290]
- herbicidal action against weed plants (visual scoring of plant damage or emergence damage) [1]: very good herbidical action
- herbicidal action against weed plants (effect scored visually) [2]: very good herbicidal action

SMILES: CCOc1nn(C(=O)NS(=O)(=O)c2c(OC)ccc(Cl)c2I)c(=O)n1C [Compound 1.817]
- herbicidal action against weed plants (visual scoring of plant damage or emergence damage) [1]: very good herbidical action
- herbicidal action against weed plants (effect scored visually) [2]: very good herbicidal action

SMILES: CCCOc1nn(C(=O)NS(=O)(=O)c2ccc(C(F)(F)F)cc2I)c(=O)n1C [Compound 1.894]
- herbicidal action against weed plants (visual scoring of plant damage or emergence damage) [1]: very good herbidical action
- herbicidal action against weed plants (effect scored visually) [2]: very good herbicidal action

SMILES: CCCCc1ccc(S(=O)(=O)NC(=O)n2nc(OC)n(C3CC3)c2=O)c(I)c1 [Compound 1.886]
- herbicidal action against weed plants (visual scoring of plant damage or emergence damage) [1]: very good herbidical action
- herbicidal action against weed plants (effect scored visually) [2]: very good herbicidal action

SMILES: CCOc1nn(C(=O)NS(=O)(=O)c2c(F)cccc2I)c(=O)n1C [Compound 1.022]
- herbicidal action against weed plants (visual scoring of plant damage or emergence damage) [1]: very good herbidical action
- herbicidal action against weed plants (effect scored visually) [2]: very good herbicidal action

SMILES: COc1nn(C(=O)NS(=O)(=O)c2c(I)cccc2OCC(F)(F)C(F)(F)F)c(=O)n1C1CC1 [Compound 1.552]
- herbicidal action against weed plants (visual scoring of plant damage or emergence damage) [1]: very good herbidical action
- herbicidal action against weed plants (effect scored visually) [2]: very good herbicidal action

SMILES: CCOc1nn(C(=O)NS(=O)(=O)c2c(I)cccc2C(F)(F)F)c(=O)n1C [Compound 1.136]
- herbicidal action against weed plants (visual scoring of plant damage or emergence damage) [1]: very good herbidical action
- herbicidal action against weed plants (effect scored visually) [2]: very good herbicidal action

SMILES: COc1nn(C(=O)NS(=O)(=O)c2c(I)cccc2OCC(C)C)c(=O)n1C1CC1 [Compound 1.294]
- herbicidal action against weed plants (visual scoring of plant damage or emergence damage) [1]: very good herbidical action
- herbicidal action against weed plants (effect scored visually) [2]: very good herbicidal action

SMILES: CCCCOc1cccc(I)c1S(=O)(=O)NC(=O)n1nc(OCC)n(C)c1=O [Compound 1.274]
- herbicidal action against weed plants (visual scoring of plant damage or emergence damage) [1]: very good herbidical action
- herbicidal action against weed plants (effect scored visually) [2]: very good herbicidal action

SMILES: Cc1cccc(I)c1S(=O)(=O)NC(=O)n1nc(C2CC2)n(C2CC2)c1=O [Compound 1.815]
- herbicidal action against weed plants (visual scoring of plant damage or emergence damage) [1]: very good herbidical action
- herbicidal action against weed plants (effect scored visually) [2]: very good herbicidal action

SMILES: CCOc1nn(C(=O)NS(=O)(=O)c2c(I)cccc2OCC(C)C)c(=O)n1C1CC1 [Compound 1.295]
- herbicidal action against weed plants (visual scoring of plant damage or emergence damage) [1]: very good herbidical action
- herbicidal action against weed plants (effect scored visually) [2]: very good herbicidal action

SMILES: CCCCOc1cccc(I)c1S(=O)(=O)NC(=O)n1nc(OC(C)C)n(C)c1=O [Compound 1.276]
- herbicidal action against weed plants (visual scoring of plant damage or emergence damage) [1]: very good herbidical action
- herbicidal action against weed plants (effect scored visually) [2]: very good herbicidal action

SMILES: COc1nn(C(=O)NS(=O)(=O)c2c(I)cccc2OCC2CC2)c(=O)n1C [Compound 1.346]
- herbicidal action against weed plants (visual scoring of plant damage or emergence damage) [1]: very good herbidical action
- herbicidal action against weed plants (effect scored visually) [2]: very good herbicidal action

SMILES: COc1ccc(Cl)c(I)c1S(=O)(=O)NC(=O)n1nc(OC)n(C)c1=O [Compound 1.816]
- herbicidal action against weed plants (visual scoring of plant damage or emergence damage) [1]: very good herbidical action
- herbicidal action against weed plants (effect scored visually) [2]: very good herbicidal action

SMILES: Cc1cc(I)c(S(=O)(=O)NC(=O)n2nc(OC(C)C)n(C)c2=O)cc1C [Compound 1.865]
- herbicidal action against weed plants (visual scoring of plant damage or emergence damage) [1]: very good herbidical action
- herbicidal action against weed plants (effect scored visually) [2]: very good herbicidal action

SMILES: CCOc1nn(C(=O)NS(=O)(=O)c2c(I)cccc2OC(C)C(F)(F)F)c(=O)n1C1CC1 (stereo not shown) [Compound 1.532]
- herbicidal action against weed plants (visual scoring of plant damage or emergence damage) [1]: very good herbidical action
- herbicidal action against weed plants (effect scored visually) [2]: very good herbicidal action
